Experimental findings from patent EP4559473A1, “PEPTIDE FOR THE TREATMENT OF DISEASES ASSOCIATED WITH APOLIPOPROTEIN AI OR TRANSTHYRETIN INVOLVEMENT” (Centro de Ingeniería Genética y Biotecnología, priority 2022, dated 2025) are described below.

Data set [1] in a line: Treatment of patients with type II diabetes (diabetic decompensation). It is filed as in vivo. Particulars: five patients, 1 mg every 12 hours intravenously for eight days; clinical and imaging evaluation. The method, then: It is exemplified with ten patients who had diabetic decompensation and reached a state of severity, that let them to be treated in the ICU of the hospital "Luis Díaz Soto" in Havana. Five of these patients were treated with a pharmaceutical composition comprising the peptide identified as SEQ ID NO: 1, so that a peptide dose of 1 mg every 12 hours was administered intravenously for eight days. In addition, they received the standard therapy needed for these cases.
Treatment with this peptide was very safe and was verified by monitoring blood biochemistry parameters and differential blood count.

A short description of data set [2]: Treatment of patients with ischemic heart disease and high blood pressure. The class given is in vivo. Particulars: six patients, 1 mg every 12 hours intravenously for seven days; clinical and imaging evaluation. As to the method: It is exemplified with the results of six patients. They presented ischemic heart disease, associated with high blood pressure, which produced a state of severity. They were treated in the Intermediate Care Unit (IMCU) of the "Luis Díaz Soto" hospital in Havana. These patients were treated with a pharmaceutical composition comprising the peptide identified as SEQ ID NO: 1, so that a peptide dose of 1 mg every 12 hours was administered intravenously for seven days. In addition, they received the standard therapy needed for these cases.
The treatment with this peptide was very safe, and verified by monitoring blood biochemistry parameters and differential blood count.

Ends that are not written are not given here.

On to “SIDLKDKYKNIGAKLVQLVANNTNEEA [peptide identified as SEQ ID NO: 1]”, for which the side effects result in data set [1] and in data set [2] was “No side effects were observed” throughout.
